Values joined by “and” are separate entries in the source; they are usually repeats but may differ in a detail not shown here. Identical values can stand only once.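 Briefly, cells in 96-well plates were exposed to five compound concentrations for 48 h, and endpoints were estimated by linear interpolation. GI50 marks 50% less growth. At the TGI there is no net growth.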
Columns and labels:
Assay in all cases: inhibition of tumour cell growth, NCI panel, 48 h
CAKI-1 renal = test system: CAKI-1 renal
CCRF-CEM leukemia = test system: CCRF-CEM leukemia
K-562 leukemia = test system: K-562 leukemia
NCI-H460 lung = test system: NCI-H460 lung
PC-3 prostate = test system: PC-3 prostate
SK-MEL-5 melanoma = test system: SK-MEL-5 melanoma
SR leukemia = test system: SR leukemia
U251 CNS = test system: U251 CNS
UACC-257 melanoma = test system: UACC-257 melanoma
UACC-62 melanoma = test system: UACC-62 melanoma

COc1ccc2cc(C(C)C(=O)N3CCOC3=O)ccc2c1 (stereo not given)
TGI (CAKI-1 renal): > 100 µM
TGI (CCRF-CEM leukemia): > 100 µM
TGI (K-562 leukemia): > 100 µM
TGI (NCI-H460 lung): > 100 µM
TGI (PC-3 prostate): > 100 µM
TGI (SK-MEL-5 melanoma): > 100 µM
TGI (SR leukemia): > 100 µM
TGI (U251 CNS): > 100 µM
TGI (UACC-257 melanoma): > 100 µM
TGI (UACC-62 melanoma): > 100 µM

CCN1CCC(O)(/C=C/c2ccc(C)cc2C)C(C(=O)/C=C/c2ccc(C)cc2C)C1 (stereo not given)
TGI (CAKI-1 renal): 9.85 µM
TGI (CCRF-CEM leukemia): 7.8 µM
TGI (K-562 leukemia): > 100 µM
TGI (NCI-H460 lung): 3.32 µM
TGI (PC-3 prostate): 9.17 µM
TGI (SK-MEL-5 melanoma): 9.23 µM
TGI (SR leukemia): 7.94 µM
TGI (U251 CNS): 11.7 µM
TGI (UACC-257 melanoma): 11.5 µM
TGI (UACC-62 melanoma): 11 µM

CSc1cnc2ccccc2c1SC1CN(Cc2ccccc2)c2ccccc2C1=O (stereo not given)
TGI (CAKI-1 renal): > 100 µM
TGI (CCRF-CEM leukemia): > 100 µM
TGI (K-562 leukemia): > 100 µM
TGI (NCI-H460 lung): > 100 µM
TGI (PC-3 prostate): > 100 µM
TGI (SK-MEL-5 melanoma): > 100 µM
TGI (SR leukemia): > 100 µM
TGI (U251 CNS): > 100 µM
TGI (UACC-257 melanoma): > 100 µM
TGI (UACC-62 melanoma): > 100 µM

Nc1nc(Cl)cc(NCC2(CO)CCCC2)n1
TGI (CAKI-1 renal): > 100 µM
TGI (CCRF-CEM leukemia): > 100 µM
TGI (K-562 leukemia): > 100 µM
TGI (NCI-H460 lung): > 100 µM
TGI (PC-3 prostate): > 100 µM
TGI (SK-MEL-5 melanoma): > 100 µM
TGI (SR leukemia): > 100 µM
TGI (U251 CNS): > 100 µM
TGI (UACC-257 melanoma): > 100 µM
TGI (UACC-62 melanoma): > 100 µM

CN(C)CCOC1(Cc2ccc(F)cc2)CCC(C(C)(C)C)CC1 (stereo not given)
TGI (CAKI-1 renal): 19.4 µM and 21 µM
TGI (CCRF-CEM leukemia): 9.82 µM and 12.9 µM
TGI (K-562 leukemia): 5.05 µM and 7.04 µM
TGI (NCI-H460 lung): 11.1 µM and 7.09 µM
TGI (PC-3 prostate): 17.4 µM and 19 µM
TGI (SK-MEL-5 melanoma): 3.42 µM and 5.03 µM
TGI (SR leukemia): 8.37 µM and 6.34 µM
TGI (U251 CNS): 17.3 µM and 19.2 µM
TGI (UACC-257 melanoma): 13.4 µM and 12.1 µM
TGI (UACC-62 melanoma): 15.8 µM and 17 µM

COc1ccc(-c2nn(-c3ccc(NC(=O)Nc4cc(C(F)(F)F)cc(C(F)(F)F)c4)cc3)cc2-c2ccncc2)cc1Cl
GI50 (CAKI-1 renal): 2.51 µM
TGI (CAKI-1 renal): > 100 µM
GI50 (CCRF-CEM leukemia): 2.28 µM
TGI (CCRF-CEM leukemia): > 100 µM
GI50 (K-562 leukemia): 2.77 µM
TGI (K-562 leukemia): > 100 µM
GI50 (NCI-H460 lung): 1.91 µM
TGI (NCI-H460 lung): 5.95 µM
GI50 (PC-3 prostate): 1.73 µM
TGI (PC-3 prostate): > 100 µM
GI50 (SK-MEL-5 melanoma): 1.93 µM
TGI (SK-MEL-5 melanoma): 4.34 µM
GI50 (SR leukemia): 2.54 µM
TGI (SR leukemia): 6.56 µM
GI50 (U251 CNS): 1.85 µM
TGI (U251 CNS): 5.48 µM
GI50 (UACC-257 melanoma): 3.5 µM
TGI (UACC-257 melanoma): 12.5 µM
GI50 (UACC-62 melanoma): 2.02 µM
TGI (UACC-62 melanoma): 5.02 µM

O=C(O)/C=c1/c2ccccc2n2nc3ccccc3c12
TGI (CAKI-1 renal): > 100 µM
TGI (CCRF-CEM leukemia): 99.6 µM
TGI (K-562 leukemia): > 100 µM
TGI (NCI-H460 lung): > 100 µM
TGI (PC-3 prostate): > 100 µM
TGI (SK-MEL-5 melanoma): 30.4 µM
TGI (SR leukemia): 49.2 µM
TGI (U251 CNS): > 100 µM
TGI (UACC-257 melanoma): 70 µM
TGI (UACC-62 melanoma): 43.5 µM

COc1ccc(NS(=O)(=O)c2ccc(NC(NC(=O)CC(C)C)(C(F)(F)F)C(F)(F)F)cc2)nn1
TGI (CAKI-1 renal): > 100 µM
TGI (CCRF-CEM leukemia): > 100 µM
TGI (K-562 leukemia): > 100 µM
TGI (NCI-H460 lung): > 100 µM
TGI (PC-3 prostate): > 100 µM
TGI (SK-MEL-5 melanoma): > 100 µM
TGI (SR leukemia): > 100 µM
TGI (U251 CNS): > 100 µM
TGI (UACC-257 melanoma): > 100 µM
TGI (UACC-62 melanoma): > 100 µM

CC(=O)OCC1OC(n2c3c(cc(C#N)c2=S)CCCCC3)C(OC(C)=O)C(OC(C)=O)C1OC(C)=O (stereo not given)
TGI (CAKI-1 renal): > 100 µM
TGI (CCRF-CEM leukemia): > 100 µM
TGI (K-562 leukemia): > 100 µM
TGI (NCI-H460 lung): > 100 µM
TGI (PC-3 prostate): > 100 µM
TGI (SK-MEL-5 melanoma): > 100 µM
TGI (SR leukemia): > 100 µM
TGI (U251 CNS): > 100 µM
TGI (UACC-257 melanoma): > 100 µM
TGI (UACC-62 melanoma): > 100 µM

COC(=O)C1=C(C)NC(C)=C(C(=O)OC)C1c1nc2sccn2c1[N+](=O)[O-]
TGI (CAKI-1 renal): > 100 µM
TGI (CCRF-CEM leukemia): > 100 µM
TGI (K-562 leukemia): > 100 µM
TGI (NCI-H460 lung): > 100 µM
TGI (PC-3 prostate): > 100 µM
TGI (SK-MEL-5 melanoma): > 100 µM
TGI (SR leukemia): > 100 µM
TGI (U251 CNS): > 100 µM
TGI (UACC-257 melanoma): > 100 µM
TGI (UACC-62 melanoma): > 100 µM

C#C[C@]1(O)CC[C@H]2[C@@H]3CCC4=C/C(=N/OC(=O)c5cccc6c(=O)c7ccccc7[nH]c56)CC[C@@H]4[C@H]3CC[C@@]21C
TGI (CAKI-1 renal): > 100 µM
TGI (CCRF-CEM leukemia): 39.1 µM
TGI (K-562 leukemia): 59 µM
TGI (NCI-H460 lung): > 100 µM
TGI (PC-3 prostate): > 100 µM
TGI (SK-MEL-5 melanoma): 45.8 µM
TGI (SR leukemia): 33.2 µM
TGI (U251 CNS): > 100 µM
TGI (UACC-257 melanoma): > 100 µM
TGI (UACC-62 melanoma): > 100 µM

[N-]=[N+]=NC1=C(c2ccccn2)C(=O)c2cccc3cccc1c23
TGI (CAKI-1 renal): > 100 µM
TGI (CCRF-CEM leukemia): > 100 µM
TGI (K-562 leukemia): > 100 µM
TGI (NCI-H460 lung): > 100 µM
TGI (PC-3 prostate): > 100 µM
TGI (SK-MEL-5 melanoma): 22.1 µM
TGI (SR leukemia): > 100 µM
TGI (U251 CNS): > 100 µM
TGI (UACC-257 melanoma): 98.4 µM
TGI (UACC-62 melanoma): > 100 µM

N#Cc1c(Cl)cc(Cl)n2c1nc1ccccc12
TGI (CAKI-1 renal): 7.67 µM
TGI (CCRF-CEM leukemia): > 100 µM
TGI (K-562 leukemia): 11.5 µM
TGI (NCI-H460 lung): 23.7 µM
TGI (PC-3 prostate): 29.3 µM
TGI (SK-MEL-5 melanoma): 32.7 µM
TGI (SR leukemia): > 29.6 µM
TGI (U251 CNS): 55.5 µM
TGI (UACC-257 melanoma): 25.1 µM
TGI (UACC-62 melanoma): 29.8 µM

O=C(O)c1ccc(OCc2nc3cc(C(F)(F)F)ccc3nc2-c2ccccc2)cc1
TGI (CAKI-1 renal): 19.6 µM
TGI (CCRF-CEM leukemia): > 100 µM
TGI (K-562 leukemia): > 100 µM
TGI (NCI-H460 lung): > 100 µM
TGI (PC-3 prostate): > 100 µM
TGI (SK-MEL-5 melanoma): > 100 µM
TGI (SR leukemia): > 100 µM
TGI (U251 CNS): > 100 µM
TGI (UACC-257 melanoma): > 100 µM
TGI (UACC-62 melanoma): > 100 µM

Nc1ccc(C(=O)N2CCC[C@H]2CO)c(N)c1
TGI (CAKI-1 renal): > 100 µM
TGI (CCRF-CEM leukemia): > 100 µM
TGI (K-562 leukemia): > 100 µM
TGI (NCI-H460 lung): > 100 µM
TGI (PC-3 prostate): > 100 µM
TGI (SK-MEL-5 melanoma): > 100 µM
TGI (SR leukemia): > 100 µM
TGI (U251 CNS): > 100 µM
TGI (UACC-257 melanoma): > 100 µM
TGI (UACC-62 melanoma): > 100 µM

COc1ccc2c(c1)CCN1CCc3ccccc3CC21 (stereo not given)
TGI (CAKI-1 renal): > 100 µM
TGI (CCRF-CEM leukemia): > 100 µM
TGI (K-562 leukemia): > 100 µM
TGI (NCI-H460 lung): > 100 µM
TGI (PC-3 prostate): > 100 µM
TGI (SK-MEL-5 melanoma): 30.2 µM
TGI (SR leukemia): > 100 µM
TGI (U251 CNS): > 100 µM
TGI (UACC-257 melanoma): > 100 µM
TGI (UACC-62 melanoma): > 100 µM

Source: PubChem BioAssay (NCI)
